Measurements taken from patent publication US9598424B2 (Takeda Pharmaceutical Company Limited, priority 2014, dated 2017).

Molecular target: T1, Full length human TBK1 (Homo sapiens, UniProt Q9UHD2)
T1 construct: Full length human TBK1 with an N-terminal His-tag; His-tag (N); made in house; host or cells: Sf9 insect cells (baculovirus, pFastBac1)
T1 sequence (Q9UHD2 1-729): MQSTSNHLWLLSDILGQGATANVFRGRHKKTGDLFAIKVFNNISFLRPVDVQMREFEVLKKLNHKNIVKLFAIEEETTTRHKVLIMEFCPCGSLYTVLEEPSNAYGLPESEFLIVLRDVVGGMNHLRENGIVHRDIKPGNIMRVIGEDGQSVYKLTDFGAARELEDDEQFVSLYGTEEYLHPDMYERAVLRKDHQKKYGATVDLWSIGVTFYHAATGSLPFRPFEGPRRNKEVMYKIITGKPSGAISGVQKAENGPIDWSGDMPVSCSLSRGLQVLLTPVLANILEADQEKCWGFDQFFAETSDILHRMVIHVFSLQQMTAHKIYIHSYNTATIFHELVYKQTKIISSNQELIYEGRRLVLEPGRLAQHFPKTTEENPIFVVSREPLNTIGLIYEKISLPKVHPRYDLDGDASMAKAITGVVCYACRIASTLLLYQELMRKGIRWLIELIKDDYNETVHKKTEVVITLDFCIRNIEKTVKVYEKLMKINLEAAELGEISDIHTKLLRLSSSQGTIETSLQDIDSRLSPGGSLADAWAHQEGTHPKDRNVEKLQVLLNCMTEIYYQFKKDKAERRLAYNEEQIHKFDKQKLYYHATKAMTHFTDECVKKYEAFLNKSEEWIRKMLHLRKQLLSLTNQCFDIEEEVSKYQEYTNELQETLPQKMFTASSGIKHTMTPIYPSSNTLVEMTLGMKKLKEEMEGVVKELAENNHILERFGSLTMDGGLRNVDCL
Assay: Inhibition of TBK1 Enzyme (Caliper microfluidic assay)
Format: biochemical
Conditions: 25 μM ATP, 60 min at RT; -log(IC50), IC50 molar; read-out: TBK1 Inhibition (pIC50) (converted)
Description: Full length human TBK1 with an N-terminal His-tag was cloned into the pFastBacl vector and was transfected into Sf9 cells. 72 hours later the virus was harvested and amplified through two additional rounds of infections. Then 400 ml of the resulting virus stock was used to infect 10L of Sf9 cells at a density of 2×10^6 cells/ml. Cell pellets were harvested 48 hours post infection and were lysed by freeze-thaw, homogenization and sonication in binding buffer (25 mM Tris pH7.6, 1 M NaCl, 10 mM imidazole, 0.5 mM TCEP) plus 0.1% Triton X-100 and complete protease inhibitor cocktail. The lysate was spun and the supernatant was purified with a HisTrap FF crude and a Superdex 200 pg column.
TBK1 inhibition is determined using a 384 well plate format in buffer containing 20 mM Hepes, pH 7.4, 10 mM MgCl2, 1 mM EDTA, 0.01% Brij-L23, 1 mM DTT. Each test compound is prepared in DMSO using 2.5-fold serial dilutions for 11 data points, which are added to the buffer so that each dilution contains 1% DMSO. To each well is added 2 μL of 1 μm 5FAM-DRHDSGLDSMKDE-NH2 (in buffer), 2 μL of diluted test compound (1% DMSO in buffer), and 5 μL of 3 nM TBK1 and 25 μM ATP (in buffer). The reaction mixture is incubated at RT for 60 min, and quenched by adding 20 mM Hepes, pH 7.4, 10 mM MgCl2, 1 mM EDTA, 0.01% Brij-L23, 1 mM DTT+25 mM EDTA. To quantify the fluorescent-labeled substrate and product following reaction, the test plate is loaded on a Caliper LC-3000, which measures percent of conversion by microfluidic-based separation. Corresponding IC50 values are calculated by non-linear curve fitting of the compound concentrations and percent of inhibition to the standard IC50 equation and reported as pIC50, i.e., −log(IC50), where IC50 is the molar concentration.

SMILES	IC50 [nM]
Cc1sc(C(=O)NCC(F)(F)F)nc1-c1ccc2nc(NC(=O)C3CC3)cn2n1 [Example 20, 4-(2-(cyclopropanecarboxamido)imidazo[1,2-b]pyridazin-6-yl)-5-methyl-N-(2,2,2-trifluoroethyl)thiazole-2-carboxamide]	501
O=C(NCC(F)(F)F)c1ncc(-c2ccc3nc(NC(=O)C4CC4)cn3c2)s1 [Example 22, 5-(2-(cyclopropanecarboxamido)imidazo[1,2-a]pyridin-6-yl)-N-(2,2,2-trifluoroethyl)thiazole-2-carboxamide]	200
Cc1sc(C(=O)NCC(F)(F)F)nc1-c1ccc2nc(NC(=O)C3CC3)cn2c1 [Example 31, 4-(2-(cyclopropanecarboxamido)imidazo[1,2-a]pyridin-6-yl)-5-methyl-N-(2,2,2-trifluoroethyl)thiazole-2-carboxamide]	398
O=C(NCC(F)F)c1ccn(-c2ccc3nc(NC(=O)C4CC4)cn3n2)n1 [Example 37, 1-(2-(cyclopropanecarboxamido)imidazo[1,2-b]pyridazin-6-yl)-N-(2,2-difluoroethyl)-1H-pyrazole-3-carboxamide]	794
O=C(NCC(F)(F)F)c1cn(-c2ccc3nc(NC(=O)C4CC4)cn3c2)cn1 [Example 41, 1-(2-(cyclopropanecarboxamido)imidazo[1,2-a]pyridin-6-yl)-N-(2,2,2-trifluoroethyl)-1H-imidazole-4-carboxamide]	63.1
COC1CCN(C(=O)c2cc(-c3ccc4nc(NC(=O)C5CC5)cn4c3)cs2)CC1 [Example 58, N-(6-(5-(4-methoxypiperidine-1-carbonyl)thiophen-3-yl)imidazo[1,2-a]pyridin-2-yl)cyclopropanecarboxamide]	794
NC(=O)[C@@H]1CC(F)(F)CN1C(=O)c1cc(-c2ccc3nc(NC(=O)C4CC4)cn3c2)cs1 [Example 82, (S)-1-(4-(2-(cyclopropanecarboxamido)imidazo[1,2-a]pyridin-6-yl)thiophene-2-carbonyl)-4,4-difluoropyrrolidine-2-carboxamide]	631
O=C(NCCO)c1nc(-c2ccc3nc(NC(=O)C4CC4)cn3c2)cs1 [Example 95, 4-(2-(cyclopropanecarboxamido)imidazo[1,2-a]pyridin-6-yl)-N-(2-hydroxyethyl)thiazole-2-carboxamide]	398
O=C1CC(NC(=O)c2nc(-c3ccc4nc(NC(=O)C5CC5)cn4c3)cs2)CN1 (centres unmarked) [Example 99, 4-(2-(cyclopropanecarboxamido)imidazo[1,2-a]pyridin-6-yl)-N-(5-oxopyrrolidin-3-yl)thiazole-2-carboxamide]	251
O=C(Nc1cn2cc(-c3csc(C(=O)N4CCC(CO)C4)n3)ccc2n1)C1CC1 (centres unmarked) [Example 100, N-(6-(2-(3-(hydroxymethyl)pyrrolidine-1-carbonyl)thiazol-4-yl)imidazo[1,2-a]pyridin-2-yl)cyclopropanecarboxamide]	200
COC1CN(C(=O)c2nc(-c3ccc4nc(NC(=O)C5CC5)cn4c3)cs2)C1 [Example 101, N-(6-(2-(3-methoxyazetidine-1-carbonyl)thiazol-4-yl)imidazo[1,2-a]pyridin-2-yl)cyclopropanecarboxamide]	631
